Consider 2 compounds from publication PMC8842277, “Highly Antiproliferative Latonduine and Indolo[2,3-c]quinoline Derivatives: Complex Formation with Copper(II) Markedly Changes the Kinase Inhibitory Profile” (Journal of Medicinal Chemistry, 2022).

A short description of data set [1]: Aqueous stability in HEPES and PBS buffer by UV–vis. The data set is classed as physicochemical. Particulars: pH 7.40, 10 mM HEPES or PBS, several hours. The procedure: Prior to the biological assays, the aqueous stability of selected compounds (HL^4, 4, HL^8, and 8) was measured as a function of time by UV–vis spectrophotometry at pH = 7.40 in 10 mM HEPES in PBS and in blood serum diluted by factor 3 (dilutions were made in HEPES and in PBS as well). […] This process took several hours, and it was in all cases less pronounced in the PBS buffer than in the HEPES medium.
(§1) Aqueous stability of 4, 8, and HL^4 was investigated in phosphate-buffered saline (PBS) and 10 mM HEPES buffers and in three-times diluted blood serum (Sigma Aldrich, from human male AB plasma) at pH = 7.40. The concentration of the compounds was between 5 and 10 μM. Blood serum was filtered on a 1.25 μm polyethersulfone membrane syringe filter and diluted with 10 mM HEPES or PBS buffer.

Data set [2] in a line: Stability in diluted blood serum by UV–vis. Format: in vitro ADME, human. To be noted: pH 7.40, diluted with HEPES or PBS. The protocol:
Measurements with diluted serum show a more elaborate picture. […] The new band cannot be undoubtedly attributed to the liberation of ligand HL^8.
as §1

Data set [3] deals with Colo320 cells. In words: Apoptosis assay, Annexin-V-FITC/PI flow cytometry. To be noted: 3 h induction. The procedure:
An apoptosis assay was performed by flow cytometry via the analysis of multidrug-resistant Colo320 cells stained with Annexin-V-FITC and propidium iodide (PI).
Colo320 cells were treated at the indicated concentration of the compounds. The dual parametric dot plots combining Annexin-V (FL1) and PI (FL3) fluorescence show the viable cell population in the lower left quadrant Annexin-V–/PI– (Q4), the early apoptotic cells in the lower right quadrant Annexin-V+/PI– (Q3), and the late apoptotic and necrotic cells in the upper right quadrant Annexin-V+/PI+ (Q2).
The assay was carried out for selected compounds using an Annexin V-FITC Apoptosis Detection Kit (cat. no. APOAF-50TST) from Sigma according to the manufacturer’s instructions. The concentration of the Colo320 cell suspension was adjusted to approximately 0.5 × 10^6 cells/mL in an RPMI 1640 medium, and the cell suspension was distributed in 1 mL of aliquots into a 24-well plate and then incubated overnight at 37 °C and 5% CO2. On the following day, the medium was removed and replaced by 1 mL of RPMI medium containing the compounds except the control samples. […] After the incubation period, the samples were washed with PBS and fresh RPMI 1640 medium was added to the samples. The cells were incubated overnight at 37 °C and 5% CO2. The next day, 200 μL of 0.25% Trypsin (Trypsin-Versen) was added to the samples until cells appeared detached followed by the addition of 400 μL of RPMI 1640 medium supplemented with 10% bovine serum. The cells were collected in Eppendorf tubes and centrifuged at 2000g for 2 min. The harvested cells were resuspended in fresh serum-free RPMI 1640 culture medium. After this step, the apoptosis assay was carried out according to the instructions of the manufacturer. The fluorescence was analyzed immediately using a ParTec CyFlow flow cytometer (Partec GmbH, Münster, Germany).
• Apoptosis and DNA binding studies […]
For orientation: Flow cytometry measures light scatter and fluorescence of single cells or particles in a stream.

The subject of data set [4] is calf thymus DNA (ct-DNA). Briefly: Ethidium bromide displacement and fluorescence lifetime. The data set is classed as binding. Particulars: 10 μM ct-DNA, 5 μM EtBr, 10 mM HEPES, pH 7.40. The protocol:
The interaction of 4 and 8 and HL^4 and HL^8 with ct-DNA was investigated by spectrofluorometry in ethidium bromide (EtBr) displacement studies. EtBr is a fluorescent probe, and its fluorescence intensity increases upon intercalation into the DNA helix. […] Decrease in the fluorescence may indicate (i) the displacement of EtBr or (ii) (partial) quenching of the fluorescence of the bound probe. In order to separate these processes, fluorescence lifetime measurements were carried out. […] In addition, they provided evidence that the two copper(II) complexes bind to ct-DNA. However, complex 8 replaced EtBr more effectively than 4. […]
Fluorescence measurements were carried out on a Fluoromax (Horiba Jobin Yvon) fluorometer. […] The excitation wavelengths were 510 or 455 nm, and the fluorescence emission was measured in the range 530–750 nm. Corrections for self-absorbance and inner filter effect were done according to our former work.[106] Fluorescence lifetime was measured on the same fluorometer equipped with a DeltaHub time-correlated single photon counting (TCSPC) controller using a NanoLED light source N-455 (Horiba Jobin Yvon). […] The fluorescence intensity decay over time is described by a sum of exponentials, [drawing 3] […] Fractional intensities were calculated as described in our former work.[105] […]

Consider `CC(=NNC1=NCc2ccccc2-c2c1[nH]c1ccc(Br)cc21)c1ccc(CN2CCOCC2)cn1.[Cl][Cu][Cl]` [compound 4, CuCl2(HL^4)·0.5H2O], for which the “Behaviour in buffer solutions over time” value in data set [1] is listed as “slow precipitation”. For the same compound, the “Behaviour in blood serum diluted by factor 3” value in data set [2] is given as “a similar behavior was observed, even though changes were smaller”. In data set [3] (0.25 µM), the “Cell death % Q1” value worked out at 5.10%; the “Early apoptosis % Q3” value was found to be 7.48%; the “Late apoptosis and necrosis % Q2” value is 12.7%. Besides, in data set [3] (0.5 µM), the “Cell death % Q1” value turned out to be 4.76%; the “Early apoptosis % Q3” value is reported as 5.18%; the “Late apoptosis and necrosis % Q2” value is on record as 11.6%. Further, the “Effect on fluorescence of the EtBr–ct-DNA system” value in data set [4] is given as “decreased the emission intensity”.
In the case of `CC(=NNc1nc2ccccc2c2c1[nH]c1ccc(Br)cc12)c1ccc(CN2CCOCC2)cn1.[Cl][Cu][Cl]` [compound 8, CuCl2(HL^8)·H2O], in data set [1], the “Behaviour in buffer solutions over time” value is on record as “slow precipitation”. Also, the “Behaviour in blood serum diluted by factor 3” value in data set [2] is recorded as “partial decomposition of the complex”. In data set [3] (0.5 µM), the “Cell death % Q1” value came to 4.52%; the “Early apoptosis % Q3” value stood at 6.01%; the “Late apoptosis and necrosis % Q2” value turned out to be 12.1%. Further, in data set [3] (2 µM), the “Cell death % Q1” value stood at 1.76%; the “Early apoptosis % Q3” value is on record as 6.91%; the “Late apoptosis and necrosis % Q2” value stood at 6.97%. Further, the “Effect on fluorescence of the EtBr–ct-DNA system” value in data set [4] was “decreased the emission intensity”.
